Several values for one entry are separate records, joined by “and”; a condition that tells them apart may be missing. Identical values can stand only once.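 96-well plates; 48 h exposure; 5 concentrations. Endpoints by linear interpolation between flanking doses. Not reached: highest tested concentration assigned. Here, GI50 denotes the concentration required for 50% inhibition of growth. TGI denotes the concentration required for complete inhibition of growth.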
System: MDA-MB-468 breast
Test: DTP human tumour cell line panel, 48 h

In the case of COc1ccc(-c2nc(-c3cc(OC)cc(OC)c3)[nH]c2-c2ccc(OC)cc2)cc1, the GI50 is reported as 2780 nM and the TGI is reported as > 100000 nM.

Compound N#CCCN1C/C(=C/c2ccc(Br)cc2)C(=O)/C(=C/c2ccc(Br)cc2)C1 has a GI50 of 1500 nM and a TGI of 3620 nM.

With CC(C)c1[nH]nc2c1N=C(c1ccccc1Cl)c1cc([N+](=O)[O-])ccc1N2 the GI50 was 2930 nM and the TGI was 15700 nM.

C#CCOc1cccc(Nc2ncnc3c(NC(=O)C=C)cccc23)c1 gave a GI50 of 4910 nM and a TGI of 25400 nM.

In the case of COc1cc2c(Nc3cc(Cl)c(OC)c(Cl)c3)c(C#N)cnc2cc1OCCCN1CCN(C)CC1, the GI50 is reported as 267 nM and the TGI is reported as 1640 nM.

With CN(C)C(=S)SSC(=S)N(C)C the GI50 was 17100 nM and the TGI was 37500 nM.

With Cn1cc(-c2csc(-c3cn(CCCCN4CCCCC4)c4ccccc34)n2)c2cccnc21 the GI50 was 1610 nM and the TGI was 3290 nM.

In the case of O=C(NNc1nc2cc(F)cc(F)c2n2cccc12)c1ncccn1, the GI50 is reported as 590 nM and the TGI is reported as 3790 nM.

In the case of CC1(C)CN=C(NN=C(/C=C/c2ccc(C(F)(F)F)cc2)/C=C/c2ccc(C(F)(F)F)cc2)NC1, the GI50 is reported as 1280 nM and the TGI is reported as 2720 nM.

Cc1cc(Nc2nc(-c3cn(-c4ccc(Cl)cc4)nn3)nc3ccccc23)n[nH]1 was tested, and the GI50 was 10400 nM and the TGI was 30500 nM.

Work on NNCCc1ccc(NC(=O)CCCc2ccc(C(=O)Nc3ccccc3N)cc2)cc1 yielded a GI50 of 10900 nM and a TGI of 40100 nM.

Cc1cn(-c2cc(C(=O)Nc3cccc(-n4ccc5c(NC(=O)c6ccccc6)nccc54)c3)cc(C(F)(F)F)c2)cn1 showed a GI50 of 229 nM and a TGI of 1040 nM.

Nc1cc2c(cc1Br)[nH]c(=O)c1ccccc12 was tested, and the GI50 was 1210 nM and the TGI was 5410 nM.

COc1ccc(-c2nn(-c3cccc(Cl)c3)cc2-c2cc(-c3ccccc3)[nH]c(=O)c2C#N)cc1 gave a GI50 of 1550 nM and a TGI of 7510 nM.

With Cc1cc(N/N=C/c2ccccn2)nc2ccccc12 the GI50 was 252 nM and the TGI was 2600 nM.

For O=C(/C(=C\c1c(-c2ccccc2)[nH]c2ccccc12)S(=O)(=O)c1ccccc1)c1ccccc1, the GI50 was 4180 nM and the TGI was > 100000 nM.

For O=C1Nc2ccccc2/C1=C1\CCc2cc(O)ccc21, the GI50 was 3330 nM and the TGI was > 21800 nM.

With COc1ccc(-c2ccc3c(N4CCOC[C@@H]4C)nc(N4CCOC[C@@H]4C)nc3n2)cc1CO the GI50 was 5.33 nM and 18 nM and the TGI was 19.9 nM and 195 nM.

For N[C@H](CCC(=O)N[C@@H](Cc1c[nH]c2ccccc12)C(=O)O)C(=O)O, the GI50 was > 100000 nM and the TGI was > 100000 nM.

In the case of Cc1ccc(OCCOCCOCCOCCOc2ccc(C)n(O)c2=S)c(=S)n1O, the GI50 is reported as < 17.4 nM and the TGI is reported as 5330 nM.

For CCN(CC)CCCCCCNc1cccc2cc(Br)cnc12, the GI50 was 1960 nM and the TGI was 4460 nM.

CC(C)[C@H](O)C(=O)N[C@@H](C)C(=O)N[C@@H]1C(=O)N(C)CCc2ccccc21 was tested, and the GI50 was > 100000 nM and the TGI was > 100000 nM.

COc1ccc(/C(C)=C(\c2ccc(OCCN3CCCCCC3)cc2)c2ccc(OC(=O)C3CCCCC3)cc2)cc1 gave a GI50 of 737 nM and a TGI of 2840 nM.

With CO[C@H]1Nc2c(ccc(C)c2O)C(=O)N2C=C(/C=C/C(N)=O)C[C@@H]12 the GI50 was 20.8 nM and the TGI was 46.5 nM.

In the case of COc1cc(/C=C\c2cc(OC)c(OC)c(OC)c2)cc(N/C=C\C(=O)c2c[nH]c3ccccc23)c1OC, the GI50 is reported as 1280 nM and the TGI is reported as 3660 nM.

In the case of COc1ccc(-c2cnnn2-c2nonc2-n2cccc2)cc1, the GI50 is reported as 130 nM and the TGI is reported as 721 nM.

Compound O=C(NCc1ccc(Cn2c(=O)sn(-c3ccccc3)c2=O)cc1)OCc1ccc2cccc(O)c2n1 has a GI50 of 552 nM and a TGI of 2140 nM.

O=C(Nc1cc(Nc2ncccc2-c2ncnc3nc[nH]c23)ccc1F)c1cc(C(F)(F)F)cc(C(F)(F)F)c1 gave a GI50 of 3000 nM and a TGI of 8360 nM.

With OC(c1cc(-c2ccc(C(F)(F)F)cc2)nc(C(F)(F)F)c1)C1CCCCN1 (stereo not drawn) the GI50 was 1610 nM and 1500 nM and the TGI was 3330 nM and 2830 nM.
